According to patent US10239843B2 (CANCER RESEARCH TECHNOLOGY LIMITED, priority 2014, dated 2019):
Read-outs that look alike come from different tables or passages of the source.

Key:
[1] = target: Human Full Length PARG (Homo sapiens (Human), UniProt Q86W56); assay: PARG enzyme assay (TR-FRET); assay type: biochemical
[2] = tested on: PARG in HeLa cell line; assay: PARG cell assay (PAR chain immunofluorescence after MMS); assay type: cell-based; conditions: HeLa cells
Summary of the method: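 Nuclear poly(ADP-ribose) chains in HeLa cells are read by indirect immunofluorescence with a mouse anti-PAR antibody applied overnight at 4° C after fixing and permeabilising. Cells get 1 h of compound, then 50 μg/mL MMS (final) for another hour. PAR persisting at that point reflects PARG inhibition.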

[3] = Homo sapiens, MMS treatment, read-out: PARG Cell IC50
[4] = MMS treatment, read-out: PARG Cell IC50
[5] = read-out: PARG Biochem IC50 Geomean
[6] = Homo sapiens, MMS 50 μg/mL, read-out: PARG Cell IC50 Geomean
[7] = MMS 50 μg/mL, read-out: PARG Cell IC50 Geomean

Sequence of Human Full Length PARG (Q86W56 whole entry): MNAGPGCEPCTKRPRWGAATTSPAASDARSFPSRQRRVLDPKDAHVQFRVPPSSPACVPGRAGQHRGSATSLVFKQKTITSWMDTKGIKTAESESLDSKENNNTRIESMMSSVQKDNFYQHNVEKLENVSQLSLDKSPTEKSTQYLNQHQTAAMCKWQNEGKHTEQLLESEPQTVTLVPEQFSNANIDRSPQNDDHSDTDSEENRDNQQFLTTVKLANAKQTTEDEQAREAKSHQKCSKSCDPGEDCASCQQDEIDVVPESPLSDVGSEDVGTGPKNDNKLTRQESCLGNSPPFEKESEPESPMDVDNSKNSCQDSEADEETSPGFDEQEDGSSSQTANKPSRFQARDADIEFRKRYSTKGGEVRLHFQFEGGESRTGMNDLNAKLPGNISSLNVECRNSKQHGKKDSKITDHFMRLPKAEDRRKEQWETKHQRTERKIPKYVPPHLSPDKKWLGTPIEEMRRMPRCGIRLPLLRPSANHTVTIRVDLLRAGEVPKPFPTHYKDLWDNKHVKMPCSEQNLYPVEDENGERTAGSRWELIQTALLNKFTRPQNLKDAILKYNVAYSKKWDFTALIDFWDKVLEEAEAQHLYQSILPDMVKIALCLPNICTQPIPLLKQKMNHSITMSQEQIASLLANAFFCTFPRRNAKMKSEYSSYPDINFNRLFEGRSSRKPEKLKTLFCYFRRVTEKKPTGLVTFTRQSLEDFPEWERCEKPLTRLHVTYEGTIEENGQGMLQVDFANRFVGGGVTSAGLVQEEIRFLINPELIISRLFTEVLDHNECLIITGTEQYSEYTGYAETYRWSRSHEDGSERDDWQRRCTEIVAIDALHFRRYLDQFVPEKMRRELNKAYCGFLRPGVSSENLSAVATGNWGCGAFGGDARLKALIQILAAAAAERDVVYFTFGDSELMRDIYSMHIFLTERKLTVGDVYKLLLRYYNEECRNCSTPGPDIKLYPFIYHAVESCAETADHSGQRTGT

SMILES	IC50 ([1]; read-out: PARG Biochem IC50) [nM]	IC50 [2, 3] [nM]	IC50 [1, 5] [nM]	further results
Cc1ncc(Cn2c(=O)c3cc(S(=O)(=O)NC4(C)CC4)ccc3n(CC#N)c2=O)s1 [Example 502, 1-(Cyanomethyl)-N-(1-methylcyclopropyl)-3-[(2-methylthiazol-5-yl)methyl]-2,4-dioxo-quinazoline-6-sulfonamide]	284	171	–	–
Cn1cc(Cn2c(=O)c3cc(S(=O)(=O)NC4(CF)CC4)ccc3n(Cc3cn(C)nn3)c2=O)cn1 [Example 593, N-[1-(Fluoromethyl)cyclopropyl]-3-[(1-methylpyrazol-4-yl)methyl]-1-[(1-methyltriazol-4-yl)methyl]-2,4-dioxo-quinazoline-6-sulfonamide]	112	–	–	IC50 [2, 4]: 523 nM
Cn1c(=O)n(Cc2cnsc2)c(=O)c2cc(S(=O)(=O)NC3(CF)CC3)ccc21 [Example 494, N-[1-(Fluoromethyl)cyclopropyl]-3-(isothiazol-4-ylmethyl)-1-methyl-2,4-dioxo-quinazoline-6-sulfonamide]	1260	1100	–	–
Cc1nnc(Cn2c(=O)[nH]c3ccc(S(=O)(=O)NC4(CF)CC4)cc3c2=O)s1 [Example 601, N-[1-(Fluoromethyl)cyclopropyl]-3-[(5-methyl-1,3,4-thiadiazol-2-yl)methyl]-2,4-dioxo-1H-quinazoline-6-sulfonamide]	710	13500	–	–
Cc1cc(Cn2c(=O)c3cc(S(=O)(=O)NC4(CF)CC4)ccc3n(Cc3ncnn3C)c2=O)on1 [Example 557, N-[1-(Fluoromethyl)cyclopropyl]-3-[(3-methylisoxazol-5-yl)methyl]-1-[(2-methyl-1,2,4-triazol-3-yl)methyl]-2,4-dioxo-quinazoline-6-sulfonamide]	368	857	–	–
Cc1cc(Cn2c(=O)c3cc(S(=O)(=O)NC4(C)CC4)ccc3n(CC3CC(C)(C)C3)c2=O)on1 [Example 477, 1-[(3,3-Dimethylcyclobutyl)methyl]-N-(1-methylcyclopropyl)-3-[(3-methylisoxazol-5-yl)methyl]-2,4-dioxo-quinazoline-6-sulfonamide]	208	–	–	IC50 [2, 4]: 403 nM
CCn1c(=O)n(Cc2cnn(C)c2)c(=O)c2cc(S(=O)(=O)NC3(CF)CC3)ccc21 [Example 438, 1-Ethyl-N-[1-(fluoromethyl)cyclopropyl]-3-[(1-methylpyrazol-4-yl)methyl]-2,4-dioxo-quinazoline-6-sulfonamide]	106	84	–	–
Cc1cc(Cn2c(=O)c3cc(S(=O)(=O)NC4(C)CC4)ccc3n(CC3CCCCN3C)c2=O)on1 (stereo not shown) [Example 275]	–	–	333	IC50 [2, 6]: 304 nM
Cn1cc(Cn2c(=O)c3cc(S(=O)(=O)NC4(C)CC4)ccc3n(CCC(C)(C)O)c2=O)cn1 [Example 368]	–	–	108	IC50 [2, 7]: 217 nM
Cc1cc(Cn2nc(C(C)C)c3ccc(S(=O)(=O)NC4(C)CC4)cc3c2=O)on1 [Example 310]	–	–	307	IC50 [2, 6]: 455 nM
Cc1cc(Cn2nc(NC3CCOCC3)c3ccc(S(=O)(=O)NC4(C)CC4)cc3c2=O)on1 [Example 306]	–	–	367	IC50 [2, 7]: 471 nM
Cc1cc(Cn2c(=O)n(Cc3c(C)noc3C)c(=O)c3cc(S(=O)(=O)NC4(C)CC4)ccc32)n(C)n1 [Example 166]	–	–	131	IC50 [2, 6]: 229 nM
COCCCn1c(=O)n(Cc2cc(C)no2)c(=O)c2cc(S(=O)(=O)NC3(CF)CC3)ccc21 [Example 525, N-[1-(Fluoromethyl)cyclopropyl]-1-(3-methoxypropyl)-3-[(3-methylisoxazol-5-yl)methyl]-2,4-dioxo-quinazoline-6-sulfonamide]	169	–	–	IC50 [2, 4]: 315 nM
Cc1cc(Cn2c(=O)n(Cc3cnn(C)c3)c(=O)c3cc(S(=O)(=O)NC4(C#N)CC4)c(F)cc32)on1 [Example 404, N-(1-Cyanocyclopropyl)-7-fluoro-1-[(3-methylisoxazol-5-yl)methyl]-3-[(1-methylpyrazol-4-yl)methyl]-2,4-dioxo-quinazoline-6-sulfonamide]	71	3860	–	–
Cc1cncc(Cn2c(=O)c3cc(S(=O)(=O)NC4(C)CC4)ccc3n(C)c2=O)c1 [Example 418, 1-Methyl-N-(1-methylcyclopropyl)-3-[(5-methyl-3-pyridyl)methyl]-2,4-dioxo-quinazoline-6-sulfonamide]	2270	2110	–	–
CCCn1c(=O)n(Cc2cnn(C)c2)c(=O)c2cc(S(=O)(=O)NC3(CF)CC3)ccc21 [Example 597, N-[1-(Fluoromethyl)cyclopropyl]-3-[(1-methylpyrazol-4-yl)methyl]-2,4-dioxo-1-propyl-quinazoline-6-sulfonamide]	100	86	–	–

SMILES	IC50 ([1]; read-out: PARG Biochem IC50) [nM]	IC50 [2, 3] [nM]	IC50 [1, 5] [nM]	further results
Cc1cc(Cn2c(=O)c3cc(S(=O)(=O)NC4(C)CC4)ccc3n(CC3CC(=O)C3)c2=O)on1 [Example 412, N-(1-Methylcyclopropyl)-3-[(3-methylisoxazol-5-yl)methyl]-2,4-dioxo-1-[(3-oxocyclobutyl)methyl]quinazoline-6-sulfonamide]	440	289	–	–
Cn1cc(Cn2c(=O)c3cc(S(=O)(=O)NC4(CF)CC4)ccc3n(CCC#N)c2=O)cn1 [Example 574, 1-(2-Cyanoethyl)-N-[1-(fluoromethyl)cyclopropyl]-3-[(1-methylpyrazol-4-yl)methyl]-2,4-dioxo-quinazoline-6-sulfonamide]	170	530	–	–
Cc1cc(Cn2c(=O)n(Cc3cnn(C)c3)c(=O)c3cc(S(=O)(=O)NC4(CF)CC4)ccc32)ccn1 [Example 541, N-[1-(Fluoromethyl)cyclopropyl]-3-[(1-methylpyrazol-4-yl)methyl]-1-[(2-methyl-4-pyridyl)methyl]-2,4-dioxo-quinazoline-6-sulfonamide]	113	227	–	–
Cn1c(=O)n(Cc2nncs2)c(=O)c2cc(S(=O)(=O)NC3(CF)CC3)ccc21 [Example 624, N-[1-(Fluoromethyl)cyclopropyl]-1-methyl-2,4-dioxo-3-(1,3,4-thiadiazol-2-ylmethyl)quinazoline-6-sulfonamide]	1040	4350	–	–
Cc1cc(Cn2c(=O)c3cc(S(=O)(=O)NC4(C)CC4)ccc3n(CCC(=O)N(C)C)c2=O)on1 [Example 406, N, N-Dimethyl-3-[6-[(1-methylcyclopropyl)sulfamoyl]-3-[(3-methylisoxazol-5-yl)methyl]-2,4-dioxo-quinazolin-1-yl]propanamide]	456	800	–	–
Cc1cc(Cn2c(=O)c3cc(S(=O)(=O)NC4(C)CC4)ccc3n(CC3CNC3)c2=O)on1 [Example 415, 1-(Azetidin-3-ylmethyl)-N-(1-methylcyclopropyl)-3-[(3-methylisoxazol-5-yl)methyl]-2,4-dioxo-quinazoline-6-sulfonamide]	609	1440	–	–
Cc1ccc(Cn2c(=O)c3cc(S(=O)(=O)NC4(C)CC4)ccc3n(C)c2=O)cn1 [Example 423, 1-Methyl-N-(1-methylcyclopropyl)-3-[(6-methyl-3-pyridyl)methyl]-2,4-dioxo-quinazoline-6-sulfonamide]	1600	1350	–	–
Cn1cc(Cn2c(=O)c3cc(S(=O)(=O)NC4(C)CC4)ccc3n(CC3CCOC3)c2=O)cn1 (stereo not shown) [Example 259]	–	–	108	IC50 [2, 6]: 108 nM
Cc1cc(Cn2c(=O)[nH]c3ccc(S(=O)(=O)NC4(C#N)CC4)cc3c2=O)on1 [Example 228, N-(1-Cyanocyclopropyl)-3-[(3-methylisoxazol-5-yl)methyl]-2,4-dioxo-1H-quinazoline-6-sulfonamide]	–	–	356	IC50 [2, 7]: 15200 nM
Cn1cc(Cn2c(=O)c3cc(S(=O)(=O)NC4(C)CC4)ccc3n(CC(F)(F)F)c2=O)cn1 [Example 621, N-(1-Methylcyclopropyl)-3-[(1-methylpyrazol-4-yl)methyl]-2,4-dioxo-1-(2,2,2-trifluoroethyl)quinazoline-6-sulfonamide]	257	135	–	–
Cn1cc(Cn2c(=O)c3cc(S(=O)(=O)NC4(CF)CC4)ccc3n(CC3(CO)CC3)c2=O)cn1 [Example 570, N-[1-(Fluoromethyl)cyclopropyl]-1-[[1-(hydroxymethyl)cyclopropyl]methyl]-3-[(1-methylpyrazol-4-yl)methyl]-2,4-dioxo-quinazoline-6-sulfonamide]	126	238	–	–
Cc1cc(Cn2c(=O)c3cc(S(=O)(=O)NC4(C)CC4)ccc3n(CCO)c2=O)on1 [Example 337]	–	–	417	IC50 [2, 6]: 772 nM
Cc1cc(Cn2c(=O)c3cc(S(=O)(=O)NC4(CF)CC4)ccc3n(Cc3cocn3)c2=O)on1 [Example 559, N-[1-(Fluoromethyl)cyclopropyl]-3-[(3-methylisoxazol-5-yl)methyl]-1-(oxazol-4-ylmethyl)-2,4-dioxo-quinazoline-6-sulfonamide]	85	60	–	–
Cn1c(=O)n(Cc2cn[nH]c2)c(=O)c2cc(S(=O)(=O)NC3(C)CC3)ccc21 [Example 183, 1-methyl-N-(1-methylcyclopropyl)-2,4-dioxo-3-(1H-pyrazol-4-ylmethyl)quinazoline-6-sulfonamide]	–	–	379	IC50 [2, 6]: 931 nM
Cc1noc(C)c1Cn1c(=O)c2cc(S(=O)(=O)NC3(C)CC3)ccc2n(C)c1=O [Example 115]	–	–	616	IC50 [2, 6]: 386 nM
Cn1cc(Cn2c(=O)c3cc(S(=O)(=O)NC4(C)CC4)c(F)cc3n(CC3COC3)c2=O)cn1 [Example 394, 7-Fluoro-N-(1-methylcyclopropyl)-3-[(1-methylpyrazol-4-yl)methyl]-1-(oxetan-3-ylmethyl)-2,4-dioxo-quinazoline-6-sulfonamide]	–	–	66	IC50 [2, 6]: 326 nM
